Data set [1] can be described thus: Cytotoxicity against mouse Neuro2a cells after 24 hrs by MTT assay. It is filed as functional, cell-based. Particulars: N2a; call rule not given here.
A short description of data set [2]: Drug uptake in human HCT116 cell […] at 1 uM by using Lyso Tracker Red DND-99 staining. Type of data set: ADME, cell-based. Particulars: hct-116, 1 µM.
Data set [3] concerns HCT-116. The data set can be described thus: Cytotoxicity against human HCT116 cells after 24 hrs by MTT assay. It is filed as functional, cell-based. Particulars: HCT-116, 24 h.
Data set [4] can be described thus: Drug uptake in human HCT116 cells cytosol at 1 uM after 12 hrs by confocal fluorescence microscopy. Type of data set: ADME, cell-based, HCT-116.
Data set [5] is described as follows: Drug uptake in human HCT116 cell subcellular region at 1 uM incubated for 3 hrs measured after 30 hrs of drug washout by confocal fluorescence microscopy. To be noted: hct-116, 3 h. It is filed as ADME, cell-based.
Data set [6] can be described thus: Drug uptake in human HCT116 cell chromatin at 1 uM after 12 hrs by confocal fluorescence microscopy. Type of data set: ADME, cell-based. To be noted: hct-116, 12 h.
Data set [7] can be described thus: Drug uptake in human HCT116 mitochondria at 1 uM by using Mito Tracker Red 580 staining. Type of data set: ADME.
The nature of data set [8]: Drug uptake in human HCT116 cell lysosomes at 1 uM by using Lyso Tracker Red DND-99 staining. Type of data set: ADME, cell-based, Lysosome. Particulars: hct-116, 1 µM.
Data set [9] is described as follows: Drug uptake in human HCT116 cell nuclear membrane at 1 uM after 12 hrs by confocal fluorescence microscopy. It is filed as ADME, cell membranes. Particulars: hct-116, 12 h.
Data set [10] relates to HCT-116. In words: Cellular uptake in human HCT116 cells at 1 uM after 1 hr by confocal fluorescence microscopy. To be noted: hct-116, 1 h. Type of data set: ADME, cell-based.
Data set [11] concerns HeLa. In words: Cytotoxicity against human HeLa cells after 24 hrs by MTT assay. It is filed as functional, cell-based. (In general: Tetrazolium dyes change colour on reduction, which living cells bring about.)

For orientation: IC50 means the midpoint of a concentration-inhibition curve. For the compound `CC(=O)c1ccc(OC2Cc3c(ccc(C(C)=O)c3O)O2)cc1O` (stereo unspecified), the IC50 is 81 nM in data set [1], 220 nM in data set [3] and 490 nM in [11]. The Drug uptake entry is reported as “Not Active” in [2]; “Active” in [4]; “Active” in [5]; “Active” in data set [6]; “Not Active” in data set [7]; “Not Active” in data set [8]. Besides, the Drug uptake entry in data set [9] and in [10] was “Active” each time.

Values taken from ChEMBL document CHEMBL1909600, “Ganodone, a bioactive benzofuran from the fruiting bodies of Ganoderma tsugae” (J Nat Prod, 2011).
